One data set in a line: physchem. As to conditions: for Solubility in water: 30 min. The data set is classed as physicochemical. The protocol: About 10 mg of the test product is taken and put in a 1.5 mL sample tube, to which 1 mL of deionized water is added, and then the sample tube is placed in a constant temperature mixer and shaken at 37° C. for 30 minutes; after shaking, the sample tube is placed in a centrifuge to undergo centrifugation for 2 minutes. Then, 500 μL of the supernatant is taken and diluted with acetonitrile to an appropriate concentration, which is used as a test sample solution for HPLC analysis.
An appropriate amount of sample was weighed and put in a glass test tube, to which a selected solvent was gradually added. The clarification process was observed.

For data set [1], the system named is a variety of other RNA viruses. Conditions: according to experimental tests; compounds of CN 202010313870.X; cited from earlier work.
For another data set, the system named is SARS-CoV-2. Conditions: according to experimental tests; compounds of CN 202010313870.X; cited from earlier work.
The next data set is described as follows: Hygroscopicity test. As to conditions: 25° C., RH80%, 24 hours. The data set is classed as physicochemical. The protocol: An appropriate amount of a test product is taken and spread in a glass-stoppered weighing bottle that has been placed in an artificial climate box (temperature is 25° C.±1° C., relative humidity is 80%±2%) for 24 hours. The weighing bottle is opened, put together with the stopper in the artificial climate box (the temperature is 25° C.±1° C., the relative humidity is 80%±2%) for 24 hours, and then taken out. The moisture content of the test product before and after being placed in the artificial climate box is measured, and the hygroscopicity is measured by comparing the change in moisture content.

The format of data set [2] is physicochemical. The protocol:
The test product is placed in suitable clean containers, and then placed under conditions of high temperature (80° C.), high humidity (25° C., relative humidity 92.5%), and light (light intensity 4500±500 1× and 90 μw/cm^2), respectively, for 7 days, and samples are taken on the 7th day and tested according to the stability inspection items.

Converted amounts (≈) assume the structure as drawn. Where a name gives a salt, the structure may show the parent alone. Read-outs that look alike come from different tables or passages of the source.

Take `CC(C)C(=O)OC[C@H]1O[C@@](C#N)(c2ccc3c(N)ncnn23)[C@H](OC(=O)C(C)C)[C@@H]1OC(=O)C(C)C` [Compound W, (2R,3R,4R,5R)-2-(4-aminopyrrolo[2,1-f][1,2,4]triazin-7-yl)-2-cyano-5-(isobutyryloxymethyl)tetrahydrofuran-3,4-diyl bis(2-methylpropanoate)]: the water solubility result in the data set “physchem” is listed as “poor water solubility”. Besides, the “inhibitory effect on a variety of other RNA viruses” value in data set [1] is given as “good inhibitory effect”. Also, in the data set with SARS-CoV-2, the anti-SARS-CoV-2 activity result is “significant”.

On to `[2H]c1cc([C@]2(C#N)O[C@H](COC(=O)C(C)C)[C@@H](OC(=O)C(C)C)[C@H]2OC(=O)C(C)C)n2ncnc(N)c12` [Compound Z, (2R,3R,4R,5R)-2-(4-aminopyrrolo[2,1-f][1,2,4]triazin-7-yl-5-d)-2-cyano-5-(isobutyryloxymethyl)tetrahydrofuran-3,4-diyl bis(2-methylpropanoate)], for which, in “physchem”, the water solubility entry is on record as “poor water solubility” and the Solubility in water was determined as 29 µg/mL (≈ 57.7 µM). Moreover, the “inhibitory effect on a variety of other RNA viruses” value in data set [1] is recorded as “good inhibitory effect”. In addition, the anti-SARS-CoV-2 activity result in the data set with SARS-CoV-2 was “significant”.

For the molecule `Br.CC(C)C(=O)OC[C@H]1O[C@@](C#N)(c2ccc3c(N)ncnn23)[C@H](OC(=O)C(C)C)[C@@H]1OC(=O)C(C)C` [Hydrobromide of Compound W, (2R,3R,4R,5R)-2-(4-aminopyrrolo[2,1-f][1,2,4]triazin-7-yl)-2-cyano-5-(isobutyryloxymethyl)tetrahydrofuran-3,4-diyl bis(2-methylpropanoate) hydrobromide], in the data set “Hygroscopicity test”, the Hygroscopicity result is reported as “no hygroscopicity” and the “increase in moisture content” value is listed as “RH80%, with an increase in moisture content of <0.1%,”. The Stability entry in data set [2] (7 days) is “Good stability under high temperature (80° C.), high”.

Turning to `Cl.[2H]c1cc([C@]2(C#N)O[C@H](COC(=O)C(C)C)[C@@H](OC(=O)C(C)C)[C@H]2OC(=O)C(C)C)n2ncnc(N)c12` [Hydrochloride of Compound Z, (2R,3R,4R,5R)-2-(4-aminopyrrolo[2,1-f][1,2,4]triazin-7-yl-5-d)-2-cyano-5-(isobutyryloxymethyl)tetrahydrofuran-3,4-diyl bis(2-methylpropanoate) hydrochloride], the “increase in moisture content” value in “Hygroscopicity test” is “moisture content of <0.1%”. Also, the Hygroscopicity result in “Hygroscopicity test” (listed as hydrochloride of Compound Z, hydrochloride) is on record as “no hygroscopicity”.

As usually defined, the solubility is how much of the substance goes into solution per volume. For the molecule `O=C(O)/C=C\C(=O)O.[2H]c1cc([C@]2(C#N)O[C@H](COC(=O)C(C)C)[C@@H](OC(=O)C(C)C)[C@H]2OC(=O)C(C)C)n2ncnc(N)c12` [Maleate of Compound Z, (2R,3R,4R,5R)-2-(4-aminopyrrolo[2,1-f][1,2,4]triazin-7-yl-5-d)-2-cyano-5-(isobutyryloxymethyl)tetrahydrofuran-3,4-diyl bis(2-methylpropanoate) maleate], in “physchem” (37 °C, water, thermodynamic from solid, Solubility in water), the solubility at 30 min came to 351 µg/mL. In “Hygroscopicity test”, the “increase in moisture content” value is given as “moisture content of <0.1%”. In addition, the Hygroscopicity entry in “Hygroscopicity test” (listed as maleate of Compound Z, maleate) was “no hygroscopicity”.

Take `[2H]c1cc([C@]2(C#N)O[C@H](COC(=O)C(C)C)[C@@H](OC(=O)C(C)C)[C@H]2OC(=O)C(C)C)n2ncnc(N)c12` [Mesylate of Compound Z, (2R,3R,4R,5R)-2-(4-aminopyrrolo[2,1-f][1,2,4]triazin-7-yl-5-d)-2-cyano-5-(isobutyryloxymethyl)tetrahydrofuran-3,4-diyl bis(2-methylpropanoate) mesylate]: in the data set “physchem”, the Solubility in water stood at 464 µg/mL. In the data set “Hygroscopicity test”, the “increase in moisture content” value was “moisture content of <0.2%”. For the same molecule, the Hygroscopicity entry in the data set “Hygroscopicity test” (listed as mesylate of Compound Z, mesylate) is listed as “no hygroscopicity”. The Stability entry in data set [2] is “decomposed obviously and had a peculiar smell”.

`[2H]c1cc([C@]2(C#N)O[C@H](COC(=O)C(C)C)[C@@H](OC(=O)C(C)C)[C@H]2OC(=O)C(C)C)n2ncnc(N)c12` [Nitrate of Compound Z, (2R,3R,4R,5R)-2-(4-aminopyrrolo[2,1-f][1,2,4]triazin-7-yl-5-d)-2-cyano-5-(isobutyryloxymethyl)tetrahydrofuran-3,4-diyl bis(2-methylpropanoate) nitrate]: the Hygroscopicity entry in the data set “Hygroscopicity test” (listed as nitrate of Compound Z, nitrate) was “no hygroscopicity”. For the same molecule, in “Hygroscopicity test” (nitrate), the “increase in moisture content” value was “moisture content of <0.1%”. Besides, the Stability entry in data set [2] (7 days) is “(80° C.), the solid melted, decomposed,”.

The values are drawn from patent US20230312584A1, “SALT OF NUCLEOSIDE ANALOG, AND CRYSTAL FORM, PHARMACEUTICAL COMPOSITION AND USE THEREOF” (priority 2020, published 2023).
